Data on 7 molecules can be found in patent US9181305B2, “Exendin-4 peptide analogues” (SANOFI, priority 2012, dated 2015).

A word on the EC50: it is the concentration that produces a half-maximal response.

*1 amine or outer side, *2 acyl side, *3 side chain or, on linkers, in order; H or OH if unused. Where a SMILES comes first, the peptide text is derived from it. Side-chain parts run from the residue outwards. [ ]: non-standard residue; d: D form. The star is where a group is joined. γGlu = O=C(O)[C@H](CCC(=O)[*:2])N[*:1]; Palmitoyl = CCCCCCCCCCCCCCCC(=O)*; Orn = NCCC[C@H](N)C(=O)O; Aib = CC(C)(N)C(=O)O; GABA = NCCCC(=O)O; βAla = NCCC(=O)O

T1 sequence (P43220 24-463): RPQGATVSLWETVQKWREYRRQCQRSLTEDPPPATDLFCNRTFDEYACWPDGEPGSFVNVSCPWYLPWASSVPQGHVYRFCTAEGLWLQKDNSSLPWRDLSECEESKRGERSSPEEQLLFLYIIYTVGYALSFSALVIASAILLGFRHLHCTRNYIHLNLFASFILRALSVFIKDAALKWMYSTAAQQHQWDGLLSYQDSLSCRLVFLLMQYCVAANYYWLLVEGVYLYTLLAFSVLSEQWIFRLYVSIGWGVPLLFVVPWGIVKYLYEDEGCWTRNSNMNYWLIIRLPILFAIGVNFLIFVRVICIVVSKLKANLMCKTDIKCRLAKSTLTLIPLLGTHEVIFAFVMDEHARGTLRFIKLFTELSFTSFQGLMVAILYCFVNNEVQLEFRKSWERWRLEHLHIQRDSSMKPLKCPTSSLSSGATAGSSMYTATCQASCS

This assay has as its target T1, human GLP-1 receptor (hGLP-1 R) (Homo sapiens, UniProt P43220).
T1 construct: expressed in transfected cells; host or cells: HEK-293
The assay is described as follows: cAMP response (HTRF) of HEK-293 cells stably expressing human GLP-1 receptor. The assay is classed as cell-based. The conditions noted are these: HEK-293 cells expressing human GLP-1 receptor, cAMP formation. As for the experimental part:
cAMP content of cells was determined using a kit from Cisbio Corp. (cat. no. 62AM4PEC) based on HTRF (Homogenous Time Resolved Fluorescence). For preparation, cells were split into T175 culture flasks and grown overnight to near confluency in medium (DMEM/10% FBS). Medium was then removed and cells washed with PBS lacking calcium and magnesium, followed by proteinase treatment with accutase (Sigma-Aldrich cat. no. A6964). Detached cells were washed and resuspended in assay buffer (1×HBSS; 20 mM HEPES, 0.1% BSA, 2 mM IBMX) and cellular density determined. […] For measurement, 25 μl of test compound in assay buffer was added to the wells, followed by incubation for 30 minutes at room temperature.
(Time-resolved FRET reads energy transfer from a long-lived donor to a nearby acceptor.)
Take `CCCCCCCCCCCCCCCC(=O)N[C@@H](CCC(=O)NCCCC[C@H](NC(=O)[C@H](CO)NC(=O)[C@@H]1CCCN1C(=O)[C@@H]1CCCN1C(=O)[C@@H]1CCCN1C(=O)[C@H](C)NC(=O)CNC(=O)[C@H](CO)NC(=O)[C@H](CO)NC(=O)[C@@H]1CCCN1C(=O)CNC(=O)CNC(=O)[C@H](CC(N)=O)NC(=O)[C@H](CCCCN)NC(=O)[C@H](CC(C)C)NC(=O)[C@H](Cc1c[nH]c2ccccc12)NC(=O)[C@H](CCC(=O)O)NC(=O)[C@@H](NC(=O)[C@H](Cc1ccccc1)NC(=O)[C@H](CC(=O)O)NC(=O)[C@H](CCC(N)=O)NC(=O)[C@H](C)NC(=O)[C@H](CCCNC(=N)N)NC(=O)[C@H](CCCNC(=N)N)NC(=O)[C@H](CCCCN)NC(=O)[C@H](CC(=O)O)NC(=O)[C@H](CCSC)NC(=O)[C@H](CCC(N)=O)NC(=O)[C@H](CCCCN)NC(=O)[C@H](CO)NC(=O)[C@H](CC(C)C)NC(=O)[C@H](CC(=O)O)NC(=O)[C@H](CO)NC(=O)[C@@H](NC(=O)[C@H](Cc1ccccc1)NC(=O)[C@@H](NC(=O)CNC(=O)[C@H](CCC(N)=O)NC(=O)[C@@H](CO)NC(=O)[C@@H](N)Cc1c[nH]cn1)[C@@H](C)O)[C@@H](C)O)[C@@H](C)CC)C(N)=O)C(=O)O` [(69)] (H-H[dS]QGTFTSDLSKQMDKRRAQDFIEWLKNGGPSSGAPPPSK([γGlu-Palmitoyl])-NH2): the EC50 worked out at 7.6 pM. For `CCCCCCCCCCCCCCCC(=O)NCCCC(=O)NCCCC[C@H](NC(=O)[C@H](CO)NC(=O)[C@@H]1CCCN1C(=O)[C@@H]1CCCN1C(=O)[C@@H]1CCCN1C(=O)[C@H](C)NC(=O)CNC(=O)[C@H](CO)NC(=O)[C@H](CO)NC(=O)[C@@H]1CCCN1C(=O)CNC(=O)CNC(=O)[C@H](CO)NC(=O)[C@H](CCCCN)NC(=O)[C@H](CC(C)C)NC(=O)[C@H](Cc1c[nH]c2ccccc12)NC(=O)[C@H](CCC(=O)O)NC(=O)[C@@H](NC(=O)[C@H](Cc1ccccc1)NC(=O)[C@H](CC(=O)O)NC(=O)[C@H](CCC(N)=O)NC(=O)[C@H](C)NC(=O)[C@H](CCCNC(=N)N)NC(=O)[C@H](CCCNC(=N)N)NC(=O)[C@H](CO)NC(=O)[C@H](CCC(=O)O)NC(=O)[C@H](CCSC)NC(=O)[C@H](CCC(N)=O)NC(=O)[C@H](CCCCN)NC(=O)[C@H](CO)NC(=O)[C@H](CC(C)C)NC(=O)[C@H](CC(=O)O)NC(=O)[C@H](CO)NC(=O)[C@@H](NC(=O)[C@H](Cc1ccccc1)NC(=O)[C@@H](NC(=O)CNC(=O)[C@H](CCC(N)=O)NC(=O)[C@@H](CO)NC(=O)[C@@H](N)Cc1c[nH]cn1)[C@@H](C)O)[C@@H](C)O)[C@@H](C)CC)C(N)=O` [(125)] (H-H[dS]QGTFTSDLSKQMESRRAQDFIEWLKSGGPSSGAPPPSK([GABA-Palmitoyl])-NH2) the value was 10.8 pM. For `CC[C@H](C)[C@H](NC(=O)[C@H](Cc1ccccc1)NC(=O)[C@H](CC(=O)O)NC(=O)[C@H](CCC(N)=O)NC(=O)[C@H](C)NC(=O)[C@H](CCCNC(=N)N)NC(=O)[C@H](CCCNC(=N)N)NC(=O)[C@H](CO)NC(=O)[C@H](CC(=O)O)NC(=O)[C@H](CCSC)NC(=O)[C@H](CCC(N)=O)NC(=O)[C@H](CCCCN)NC(=O)[C@H](CO)NC(=O)[C@H](CC(C)C)NC(=O)[C@H](CC(=O)O)NC(=O)[C@H](CO)NC(=O)[C@@H](NC(=O)[C@H](Cc1ccccc1)NC(=O)[C@@H](NC(=O)CNC(=O)[C@H](CCC(N)=O)NC(=O)[C@H](C)NC(=O)[C@@H](N)Cc1c[nH]cn1)[C@@H](C)O)[C@@H](C)O)C(=O)N[C@@H](CCC(=O)O)C(=O)N[C@@H](Cc1c[nH]c2ccccc12)C(=O)N[C@@H](CC(C)C)C(=O)N[C@@H](CCCCN)C(=O)N[C@@H](CC(N)=O)C(=O)NCC(=O)NCC(=O)N1CCC[C@H]1C(=O)N[C@@H](CO)C(=O)N[C@@H](CO)C(=O)NCC(=O)N[C@@H](C)C(=O)N1CCC[C@H]1C(=O)N1CCC[C@H]1C(=O)N1CCC[C@H]1C(=O)N[C@@H](CO)C(N)=O` [(39)] (H-HAQGTFTSDLSKQMDSRRAQDFIEWLKNGGPSSGAPPPS-NH2), it took 4.6 pM to reach a half-maximal effect (EC50).

`CCCCCCCCCCCCCCCC(=O)N[C@@H](CCC(=O)NCCC[C@H](NC(=O)[C@H](CO)NC(=O)[C@@H]1CCCN1C(=O)[C@@H]1CCCN1C(=O)[C@@H]1CCCN1C(=O)[C@H](C)NC(=O)CNC(=O)[C@H](CO)NC(=O)[C@H](CO)NC(=O)[C@@H]1CCCN1C(=O)CNC(=O)CNC(=O)[C@H](CO)NC(=O)[C@H](CCCCN)NC(=O)[C@H](CC(C)C)NC(=O)[C@H](Cc1c[nH]c2ccccc12)NC(=O)[C@H](CCC(=O)O)NC(=O)[C@@H](NC(=O)[C@H](Cc1ccccc1)NC(=O)[C@H](CC(=O)O)NC(=O)[C@H](CCC(N)=O)NC(=O)[C@H](C)NC(=O)[C@H](CCCNC(=N)N)NC(=O)[C@H](CCCNC(=N)N)NC(=O)[C@H](CO)NC(=O)[C@H](CCC(=O)O)NC(=O)[C@H](CCSC)NC(=O)[C@H](CCC(N)=O)NC(=O)[C@H](CCCCN)NC(=O)[C@H](CO)NC(=O)[C@H](CC(C)C)NC(=O)[C@H](CC(=O)O)NC(=O)[C@H](CO)NC(=O)[C@@H](NC(=O)[C@H](Cc1ccccc1)NC(=O)[C@@H](NC(=O)CNC(=O)[C@H](CCC(N)=O)NC(=O)[C@@H](CO)NC(=O)[C@@H](N)Cc1c[nH]cn1)[C@@H](C)O)[C@@H](C)O)[C@@H](C)CC)C(N)=O)C(=O)O` [(88)] (H-H[dS]QGTFTSDLSKQMESRRAQDFIEWLKSGGPSSGAPPPS[Orn]([γGlu-Palmitoyl])-NH2) displayed an EC50 of 5.1 pM. For `CCCCCCCCCCCCCCCC(=O)N[C@@H](CCC(=O)NCCCC[C@H](NC(=O)[C@@H]1CCCN1C(=O)[C@@H]1CCCN1C(=O)[C@@H]1CCCN1C(=O)[C@H](C)NC(=O)CNC(=O)[C@H](CO)NC(=O)[C@H](CO)NC(=O)[C@@H]1CCCN1C(=O)CNC(=O)CNC(=O)[C@H](CC(N)=O)NC(=O)[C@H](CCCCN)NC(=O)[C@H](CC(C)C)NC(=O)[C@H](Cc1c[nH]c2ccccc12)NC(=O)[C@H](CCC(=O)O)NC(=O)[C@@H](NC(=O)[C@H](Cc1ccccc1)NC(=O)[C@H](CC(=O)O)NC(=O)[C@H](CCC(N)=O)NC(=O)[C@H](C)NC(=O)[C@H](CCCNC(=N)N)NC(=O)[C@H](CCCNC(=N)N)NC(=O)[C@H](CO)NC(=O)[C@H](CC(=O)O)NC(=O)[C@H](CCSC)NC(=O)[C@H](CCC(N)=O)NC(=O)[C@H](CCCCN)NC(=O)[C@H](CO)NC(=O)[C@H](CC(C)C)NC(=O)[C@H](CC(=O)O)NC(=O)[C@H](CO)NC(=O)[C@@H](NC(=O)[C@H](Cc1ccccc1)NC(=O)[C@@H](NC(=O)CNC(=O)[C@H](CCC(N)=O)NC(=O)C(C)(C)NC(=O)[C@@H](N)Cc1c[nH]cn1)[C@@H](C)O)[C@@H](C)O)[C@@H](C)CC)C(N)=O)C(=O)O` [(52)] (H-H[Aib]QGTFTSDLSKQMDSRRAQDFIEWLKNGGPSSGAPPPK([γGlu-Palmitoyl])-NH2) the value was 4.1 pM; for `CCCCCCCCCCCCCCCC(=O)N[C@@H](CCC(=O)NCCCC[C@H](NC(=O)[C@H](CO)NC(=O)[C@@H]1CCCN1C(=O)[C@@H]1CCCN1C(=O)[C@@H]1CCCN1C(=O)[C@H](C)NC(=O)CNC(=O)[C@H](CO)NC(=O)[C@H](CO)NC(=O)[C@@H]1CCCN1C(=O)CNC(=O)CNC(=O)[C@H](C)NC(=O)[C@H](CCCCN)NC(=O)[C@H](CC(C)C)NC(=O)[C@H](Cc1c[nH]c2ccccc12)NC(=O)[C@H](CCC(=O)O)NC(=O)[C@@H](NC(=O)[C@H](Cc1ccccc1)NC(=O)[C@H](CC(=O)O)NC(=O)[C@H](CCCCN)NC(=O)[C@H](C)NC(=O)[C@H](C)NC(=O)[C@H](CCC(=O)O)NC(=O)[C@H](CCC(=O)O)NC(=O)[C@H](CCC(=O)O)NC(=O)[C@H](CCSC)NC(=O)[C@H](CCC(N)=O)NC(=O)[C@H](CCCCN)NC(=O)[C@H](CO)NC(=O)[C@H](CC(C)C)NC(=O)[C@H](CC(=O)O)NC(=O)[C@H](CO)NC(=O)[C@@H](NC(=O)[C@H](Cc1ccccc1)NC(=O)[C@@H](NC(=O)CNC(=O)[C@H](CCC(N)=O)NC(=O)[C@@H](CO)NC(=O)[C@@H](N)Cc1c[nH]cn1)[C@@H](C)O)[C@@H](C)O)[C@@H](C)CC)C(N)=O)C(=O)O` [(110)] (H-H[dS]QGTFTSDLSKQMEEEAAKDFIEWLKAGGPSSGAPPPSK([γGlu-Palmitoyl])-NH2), 2.9 pM.

In turn, `CCCCCCCCCCCCCCCC(=O)NCCC(=O)NCCC(=O)NCCCC[C@H](NC(=O)[C@H](CO)NC(=O)[C@@H]1CCCN1C(=O)[C@@H]1CCCN1C(=O)[C@@H]1CCCN1C(=O)[C@H](C)NC(=O)CNC(=O)[C@H](CO)NC(=O)[C@H](CO)NC(=O)[C@@H]1CCCN1C(=O)CNC(=O)CNC(=O)[C@H](CO)NC(=O)[C@H](CCCCN)NC(=O)[C@H](CC(C)C)NC(=O)[C@H](Cc1c[nH]c2ccccc12)NC(=O)[C@H](CCC(=O)O)NC(=O)[C@@H](NC(=O)[C@H](Cc1ccccc1)NC(=O)[C@H](CC(=O)O)NC(=O)[C@H](CCC(N)=O)NC(=O)[C@H](C)NC(=O)[C@H](CCCNC(=N)N)NC(=O)[C@H](CCCNC(=N)N)NC(=O)[C@H](CO)NC(=O)[C@H](CCC(=O)O)NC(=O)[C@H](CCSC)NC(=O)[C@H](CCC(N)=O)NC(=O)[C@H](CCCCN)NC(=O)[C@H](CO)NC(=O)[C@H](CC(C)C)NC(=O)[C@H](CC(=O)O)NC(=O)[C@H](CO)NC(=O)[C@@H](NC(=O)[C@H](Cc1ccccc1)NC(=O)[C@@H](NC(=O)CNC(=O)[C@H](CCC(N)=O)NC(=O)[C@@H](CO)NC(=O)[C@@H](N)Cc1c[nH]cn1)[C@@H](C)O)[C@@H](C)O)[C@@H](C)CC)C(N)=O` [(98)] (H-H[dS]QGTFTSDLSKQMESRRAQDFIEWLKSGGPSSGAPPPSK([βAla-βAla-Palmitoyl])-NH2) showed an EC50 of 5.1 pM.
